Measurements: patent US20250313572A1, “MACROCYCLIC MCL-1 INHIBITORS AND METHODS OF USE” (AbbVie Inc., priority 2017, published 2025)
Read-outs that look alike come from different tables or passages of the source.

Key:
[1] = test system: AMO-1 human multiple myeloma tumor cell line; assay: AMO-1 cell viability assay (CellTiter-Glo, 24 hours); type: cell-based; conditions: Homo sapiens, AMO1, 24 h, read-out: AMO-1 Viability IC50 (μM, 10% FBS), 10% FBS, 24 hours of compound treatment
Protocol: (§1) Each concentration was tested in duplicate at least 3 independent times. A luminescent signal proportional to the number of viable cells following 24 hours of compound treatment was determined using the CellTiter-Glo® Luminescent Cell Viability Assay according to the manufacturer's recommendations (Promega Corp., Madison, WI). The plates were read in a Perkin Elmer Envision using a Luminescence protocol. To generate dose response curves the data is normalized to percent viability by setting the averages of the staurosporine (10 μM) and DMSO only control wells to 0% and 100% viability respectively.

GST-MCL-1 = GST-MCL-1 (Homo sapiens, UniProt Q07820); assay: TR-FRET MCL-1 binding assay (competition with probe F-Bak)
How it was run: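 Test compounds, 11 three-fold dilutions from 25 μM final, incubated 2 hours at room temperature with GST-MCL-1, F-Bak probe and Tb-anti-GST antibody. TR-FRET read at 340/35 nm excitation with 520/525 and 495/510 nm emission. Run without human serum and with 10% HS.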

[2] = test system: NCI-H929 human multiple myeloma tumor cell line; assay: NCI-H929 cell viability assay (CellTiter-Glo, 24 hours); type: cell-based; conditions: Homo sapiens, NCI-H929, 24 h, read-out: H929 Viability IC50 (μM, 10% FBS), 10% FBS, 24 hours of compound treatment
Protocol: as §1

[3] = MCL-1 Binding Ki (nM, 10% HS), in the presence of 10% HS (human serum)
[4] = without HS, read-out: MCL-1 Binding Ki

Sequence of GST-MCL-1 (Q07820 whole entry): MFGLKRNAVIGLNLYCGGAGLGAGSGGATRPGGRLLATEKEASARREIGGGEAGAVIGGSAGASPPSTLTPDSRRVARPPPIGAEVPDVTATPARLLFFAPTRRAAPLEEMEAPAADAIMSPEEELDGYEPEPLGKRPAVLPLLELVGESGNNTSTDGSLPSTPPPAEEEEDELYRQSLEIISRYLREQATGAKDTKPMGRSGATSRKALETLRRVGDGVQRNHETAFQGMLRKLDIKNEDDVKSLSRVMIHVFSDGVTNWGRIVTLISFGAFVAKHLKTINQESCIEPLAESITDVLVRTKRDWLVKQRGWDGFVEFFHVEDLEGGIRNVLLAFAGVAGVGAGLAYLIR

Compound	IC50 [1] [nM]	Ki (GST-MCL-1; [3]) [nM]	Ki (GST-MCL-1; [4]) [nM]	IC50 [2] [µM]	Ki (GST-MCL-1; read-out: MCL-1 Binding Ki (nM, 10% HS), in the presence of 10% HS (human serum)) [nM]
CO[C@@H]1CO[C@H]2[C@@H]1OC[C@H]2OCCOc1nccc(COc2ccc3cc2C[C@H](C(=O)O)Oc2ncnc4sc(-c5ccc(F)cc5)c(c24)-c2c(C)c(Cl)c(c(Cl)c2C)O[C@H](CN2CCN(C)CC2)CO3)n1 [Example 134, (7R,16R)-19,23-dichloro-1-(4-fluorophenyl)-10-{[2-(2-{[(3R,3aR,6R,6aR)-6-methoxyhexahydrofuro[3,2-b]furan-3-yl]oxy}ethoxy)pyrimidin-4-yl]methoxy}-20,22-dimethyl-16-[(4-methylpiperazin-1-yl)methyl]-7,8,15,16-tetrahydro-18,21-etheno-13,9-(metheno)-6,14,17-trioxa-2-thia-3,5-diazacyclononadeca[1,2,3-cd]indene-7-carboxylic Acid]	3.04	0.339	0.047	0.01	–
COC[C@@H](COc1ccc(-c2nccc(COc3ccc4cc3C[C@H](C(=O)O)Oc3ncnc5sc(-c6ccc(F)cc6)c(c35)-c3c(C)c(Cl)c(c(Cl)c3C)O[C@H](CN3CCN(C)CC3)CO4)n2)cc1)OC [Example 136, (7R,16R)-19,23-dichloro-10-[(2-{4-[(25)-2,3-dimethoxypropoxy]phenyl}pyrimidin-4-yl)methoxy]-1-(4-fluorophenyl)-20,22-dimethyl-16-[(4-methylpiperazin-1-yl)methyl]-7,8,15,16-tetrahydro-18,21-etheno-9,13-(metheno)-6,14,17-trioxa-2-thia-3,5-diazacyclononadeca[1,2,3-cd]indene-7-carboxylic acid]	0.403	0.758	0.027	0.000392	–
COC[C@H](COc1ccc(-c2nccc(COc3ccc4cc3C[C@H](C(=O)O)Oc3ncnc5sc(-c6ccc(F)cc6)c(c35)-c3c(C)c(Cl)c(c(Cl)c3C)O[C@H](CN3CCN(C)CC3)CO4)n2)cc1)OC [Example 137, (7R,16R)-19,23-dichloro-10-[(2-{4-[(2R)-2,3-dimethoxypropoxy]phenyl}pyrimidin-4-yl)methoxy]-1-(4-fluorophenyl)-20,22-dimethyl-16-[(4-methylpiperazin-1-yl)methyl]-7,8,15,16-tetrahydro-18,21-etheno-9,13-(metheno)-6,14,17-trioxa-2-thia-3,5-diazacyclononadeca[1,2,3-cd]indene-7-carboxylic acid]	0.394	0.999	0.031	0.000286	–
CO[C@@H]1CO[C@H]2[C@@H]1OC[C@H]2OCCOCCOC1CCC(c2nccc(COc3ccc4cc3C[C@H](C(=O)O)Oc3ncnc5sc(-c6ccc(F)cc6)c(c35)-c3c(C)c(Cl)c(c(Cl)c3C)O[C@H](CN3CCN(C)CC3)CO4)n2)CC1 (stereo partly drawn) [Example 138, (7R,16R)-19,23-dichloro-1-(4-fluorophenyl)-10-[(2-{(1r,4r)-4-[2-(2-{[(3R,3aR,6R,6aR)-6-methoxyhexahydrofuro[3,2-b]furan-3-yl]oxy}ethoxy)ethoxy]cyclohexyl}pyrimidin-4-yl)methoxy]-20,22-dimethyl-16-[(4-methylpiperazin-1-yl)methyl]-7,8,15,16-tetrahydro-18,21-etheno-13,9-(metheno)-6,14,17-trioxa-2-thia-3,5-diazacyclononadeca[1,2,3-cd]indene-7-carboxylic Acid]	2	–	0.007	0.00221	0.049
COCCOCCOCC1CN(c2nccc(COc3ccc4cc3C[C@H](C(=O)O)Oc3ncnc5sc(-c6ccc(F)cc6)c(c35)-c3c(C)c(Cl)c(c(Cl)c3C)O[C@H](CN3CCN(C)CC3)CO4)n2)C1 [Example 139, (7R,16R)-19,23-dichloro-1-(4-fluorophenyl)-10-{[2-(3-{[2-(2-methoxyethoxy)ethoxy]methyl}azetidin-1-yl)pyrimidin-4-yl]methoxy}-20,22-dimethyl-16-[(4-methylpiperazin-1-yl)methyl]-7,8,15,16-tetrahydro-18,21-etheno-9,13-(metheno)-6,14,17-trioxa-2-thia-3,5-diazacyclononadeca[1,2,3-cd]indene-7-carboxylic Acid]	2.31	1.21	0.147	0.00307	–
COCCOCCOCC1CN(c2nccc(COc3ccc4cc3C[C@@H](C(=O)O)Oc3ncnc5sc(-c6ccc(F)cc6)c(c35)-c3c(C)c(Cl)c(c(Cl)c3C)O[C@H](CN3CCN(C)CC3)CO4)n2)C1 [Example 140, (7S,16R)-19,23-dichloro-1-(4-fluorophenyl)-10-{[2-(3-{[2-(2-methoxyethoxy)ethoxy]methyl}azetidin-1-yl)pyrimidin-4-yl]methoxy}-20,22-dimethyl-16-[(4-methylpiperazin-1-yl)methyl]-7,8,15,16-tetrahydro-18,21-etheno-9,13-(metheno)-6,14,17-trioxa-2-thia-3,5-diazacyclononadeca[1,2,3-cd]indene-7-carboxylic Acid]	242	166	34.9	0.244	–
COCC(COC)Oc1nccc(COc2ccc3cc2C[C@H](C(=O)O)Oc2ncnc4sc(-c5ccc(F)cc5)c(c24)-c2c(C)c(Cl)c(c(Cl)c2C)O[C@H](CN2CCN(C)CC2)CO3)n1 [Example 141, (7R,16R)-19,23-dichloro-10-({2-[(1,3-dimethoxypropan-2-yl)oxy]pyrimidin-4-yl}methoxy)-1-(4-fluorophenyl)-20,22-dimethyl-16-[(4-methylpiperazin-1-yl)methyl]-7,8,15,16-tetrahydro-18,21-etheno-9,13-(metheno)-6,14,17-trioxa-2-thia-3,5-diazacyclononadeca[1,2,3-cd]indene-7-carboxylic Acid]	0.441	0.363	0.008	0.000503	–
Cc1c(Cl)c2c(Cl)c(C)c1-c1c(-c3ccc(F)cc3)sc3ncnc(c13)O[C@@H](C(=O)O)Cc1cc(ccc1OCc1ccnc(-c3ccc(CCN4CCOCC4)cc3)n1)OC[C@@H](CN1CCN(C)CC1)O2 [Example 142, (7R,16R)-19,23-dichloro-1-(4-fluorophenyl)-20,22-dimethyl-16-[(4-methylpiperazin-1-yl)methyl]-10-[(2-{4-[2-(morpholin-4-yl)ethyl]phenyl}pyrimidin-4-yl)methoxy]-7,8,15,16-tetrahydro-18,21-etheno-13,9-(metheno)-6,14,17-trioxa-2-thia-3,5-diazacyclononadeca[1,2,3-cd]indene-7-carboxylic Acid]	0.0488	0.776	0.185	0.000156	–
Cc1c(Cl)c2c(Cl)c(C)c1-c1c(-c3ccc(F)cc3)sc3ncnc(c13)O[C@@H](C(=O)O)Cc1cc(ccc1OCc1ccnc(-c3cccc(CCN4CCOCC4)c3)n1)OC[C@@H](CN1CCN(C)CC1)O2 [Example 143, (7R,16R)-19,23-dichloro-1-(4-fluorophenyl)-20,22-dimethyl-16-[(4-methylpiperazin-1-yl)methyl]-10-[(2-{3-[2-(morpholin-4-yl)ethyl]phenyl}pyrimidin-4-yl)methoxy]-7,8,15,16-tetrahydro-18,21-etheno-13,9-(metheno)-6,14,17-trioxa-2-thia-3,5-diazacyclononadeca[1,2,3-cd]indene-7-carboxylic Acid]	0.216	0.175	0.023	0.000203	–
Cc1c(Cl)c2c(Cl)c(C)c1-c1c(-c3ccc(F)cc3)sc3ncnc(c13)O[C@@H](C(=O)O)Cc1cc(ccc1OCc1ccnc(N3CCC(C)(N4CCOCC4)CC3)n1)OC[C@@H](CN1CCN(C)CC1)O2 [Example 144, (7R,16R)-19,23-dichloro-1-(4-fluorophenyl)-20,22-dimethyl-10-({2-[4-methyl-4-(morpholin-4-yl)piperidin-1-yl]pyrimidin-4-yl}methoxy)-16-[(4-methylpiperazin-1-yl)methyl]-7,8,15,16-tetrahydro-18,21-etheno-13,9-(metheno)-6,14,17-trioxa-2-thia-3,5-diazacyclononadeca[1,2,3-cd]indene-7-carboxylic Acid]	1.78	> 444	10.9	0.0077	–
Cc1c(Cl)c2c(Cl)c(C)c1-c1c(-c3ccc(F)cc3)sc3ncnc(c13)O[C@@H](C(=O)O)Cc1cc(ccc1OCc1ccnc(-c3ccc(S(=O)(=O)N4CCOCC4)cc3)n1)OC[C@@H](CN1CCN(C)CC1)O2 [Example 145, (7R,16R)-19,23-dichloro-1-(4-fluorophenyl)-20,22-dimethyl-16-[(4-methylpiperazin-1-yl)methyl]-10-({2-[4-(morpholine-4-sulfonyl)phenyl]pyrimidin-4-yl}methoxy)-7,8,15,16-tetrahydro-18,21-etheno-13,9-(metheno)-6,14,17-trioxa-2-thia-3,5-diazacyclononadeca[1,2,3-cd]indene-7-carboxylic Acid]	0.407	0.399	0.081	0.000973	–
CO[C@@H]1CO[C@H]2[C@@H]1OC[C@H]2Oc1nccc(COc2ccc3cc2C[C@H](C(=O)O)Oc2ncnc4sc(-c5ccc(F)cc5)c(c24)-c2c(C)c(Cl)c(c(Cl)c2C)O[C@H](CN2CCN(C)CC2)CO3)n1 [Example 146, (7R,16R)-19,23-dichloro-1-(4-fluorophenyl)-10-[(2-{[(3R,3aR,6R,6aR)-6-methoxyhexahydrofuro[3,2-b]furan-3-yl]oxy}pyrimidin-4-yl)methoxy]-20,22-dimethyl-16-[(4-methylpiperazin-1-yl)methyl]-7,8,15,16-tetrahydro-18,21-etheno-13,9-(metheno)-6,14,17-trioxa-2-thia-3,5-diazacyclononadeca[1,2,3-cd]indene-7-carboxylic Acid]	2.23	0.041	0.001	0.00408	–
